{"source": "patent US12102672B2", "about": "“Immunogenic sequences from a phage tail length tape measure protein, bacteria expressing the same and their use in treating a cancer” (INSTITUT GUSTAVE ROUSSY, priority 2017, dated 2024)", "key": {"[1]": {"test_system": "prophage 1 and 2 of EH13144", "conditions": "mitomycin C 1 μg/ml; 37° C. and 42° C.; without capside disruption", "source_text": "Protocol for phage excision by mitomycin C.\nPCR was run to detect specific sequences of the prophage 1 or 2."}, "[2]": {"biological_target": "HLA-A*0201 with TMP peptide … on peptide-pulsed autologous cells (human; Enterococcus hirae 13144 (prophage 2, TMP))"}, "[3]": {"biological_target": "HLA-A*0201 with TMP peptide […] on peptide-pulsed autologous cells (human; Enterococcus hirae 13144 (prophage 2, TMP))"}, "pTh17 cells": {"test_system": "pTh17 cells", "assay": "Induction of pTh17 cells in secondary lymphoid organs of CTX-treated animals", "assay_type": "in vivo", "excerpt": "The reasons for these differences were however unknown, and the inventors pursued their research to identify the factor(s) responsible for the immunogenic properties of the murine strain EH13144 and the human clones IGR4, IGR7 and IGR11, in order to derive new molecules or microorganisms useful in the treatment of cancer."}, "MCA-205 sarcoma [4]": {"test_system": "MCA-205 sarcoma", "assay": "MCA205 sarcoma growth in antibiotic-treated SPF C57BL/6 mice, CTX plus oral gavage with bacteria", "assay_type": "in vivo", "conditions": "ATB 3 days, CTX 100 mg/kg x3, weekly oral gavages, FIG. 27B", "protocol": "(§1) A and C. Experimental setting. […] D-E. Ex vivo recall assays. […] Each dot represents one mouse.\nA-B. Prophylactic vaccinations. […] C-D. Therapeutic settings.\nMice were treated during 3 days with an antibiotic solution (ATB) containing ampicillin (1 mg/ml), streptomycin (5 mg/ml), colistin (1 mg/ml) (Sigma-Aldrich) and vancomycin (0.25 mg/ml) added in the sterile drinking water of mice. Antibiotic activity was confirmed by cultivating fecal pellets resuspended in BHI+15% glycerol at 0.1 g/ml on COS (BD Columbia Agar with 5% Sheep Blood) plates for 48 h at 37° C. in aerobic and anaerobic conditions. In the context of bacterial transplantation experiments, mice received 3 days of ATB before undergoing bacterial transplantation the next day by oral gavage using animal feeding needles.\nSyngeneic C57BL/6 mice were implanted with 0.8×10^6 MCA-205 WT sarcoma cells subcutaneously and treated intraperitoneally (i.p.) when tumors reached 20 to 35 mm^2 in size with CTX (100 mg/kg). Depending on the experimental setting, mice were injected once or 3 times at 1-week interval. Tumor size was routinely monitored every 3 days by means of a caliper.\nEnterococcus hirae 13144 were originally isolated from spleens of SPF mice treated with CTX in our laboratory."}, "[5]": {"test_system": "IFNg producing CD8^+ T (Tc1) cells", "conditions": "naïve mice; cited from earlier work"}, "MCA-205 sarcoma [6]": {"test_system": "MCA-205 sarcoma", "assay": "MCA-205 sarcoma growth in FMT-treated mice, CTX plus oral gavage with E. hirae strains", "assay_type": "in vivo", "conditions": "summary of the characteristics of the strains; with CTX, MCA205 sarcoma", "protocol": "FIG. 1. Experimental setting. (A) Mice are treated with broad spectrum antibiotics (streptomycin, colistin, ampicillin and vancomycine) for 3 days before performing Fecal Microbiota Transplantation (FMT). 14 days post-FMT, MCA-205 sarcoma cell lines are inoculated in the right flank of mice (8.10^5 cells per mice). […] (B) Non FMT-treated SPF mice are used as control.\nFIG. 2. Dysbiosis by FMT BC patient 1: Effectiveness of E. hirae 13144 to restore CTX-mediated antitumor effects. […] (C) Tumor growth curves of MCA-205 sarcoma in FMT-treated mice after oral gavage with strain E. hirae 13144 or NaCl as control. 2 independent experiments are depicted. (D) Overall survival of FMT-treated, MCA-205 sarcoma bearing mice treated with CTX or NaCl after oral gavage with strain E. hirae 13144. A typical survival curve is depicted for six mice per group. (E) Concatenated data of tumor sizes at day 21 post-CTX from 2 independent experiments are shown.\nFIG. 3. […] (C) Tumor growth curves of MCA-205 sarcoma in FMT-treated mice after oral gavage with strain E. hirae 13144 or NaCl as control. 2 independent experiments are depicted. (D) Concatenated data of tumor sizes at day 21 post-CTX from 2 independent experiments are shown.\nFIG. 4. […] Tumor growth curves of MCA-205 sarcoma in FMT-treated mice after oral gavage with strain E. hirae 13144 (A), IGR1 (B) or NaCl as control. A typical curve is depicted for six mice per group. (C) Concatenated data of tumor sizes at day 17 post-CTX from 1-2 independent experiments are shown. (D). Comparaison of various strains of E. hirae for their capacity to control tumor growth. […] EH10815 fails to work and that may be related to a mutation residing in TMP2 (see below FIG. 13B).\nFIG. 5. […] (A) Tumor surface of MCA-205 sarcoma in FMT-treated mice after oral gavage with strain E. hirae 13144, IGR4, IGR7, Actinomycetes spp (Ao) and injected with 3 cycles of CTX (C) vs NaCl (N). Each dot is one mouse/tumor. (B) Tumor growth curves of MCA-205 sarcoma in SPF mice of the best group, means+SEM of tumor sizes at each time point and tumor sizes at sacrifice (C: CTX). Each dot is one mouse/tumor. Anova statistics indicating significant differences between CTX and the triple combination. (C) Tumor surface of MCA-205 sarcoma in FMT-treated mice after oral gavage with strains EH13144, IGR1, IGR11, Barnesiella or Akkermansia and injected with 3 cycles of CTX. Bacterial strains are used alive (V) or pasteurized (P). For pasteurization, bacteria are incubated 30 min at 70° C. and frozen at −80° C. at least 6 hours.\nFIG. 6. […] Tumor growth curves of MCA-205 sarcoma in FMT-treated mice after oral gavage with strain E. hirae 13144 alive (A), pasteurized (B) or NaCl as control. A typical curve is depicted for six mice per group. (C) Concatenated data of tumor sizes at day 17 post-CTX from 3 independent experiments are shown."}, "splenic CD8+ T cells": {"test_system": "splenic CD8+ T cells", "assay": "IFNγ ELISpot recall assay of splenic CD8+ T cells with DCs pulsed with heat-inactivated bacteria or peptides", "assay_type": "cell-based, mice", "protocol": "FIG. 9. Experimental immunization protocols to elucidate the immunogenicity of EH peptides. […] 5 days after the first oral gavage, mice are treated with CTX. One week post-CTX, CD8+ T cells are isolated from spleen. These CD8+ T cells are incubated with dendritic cells (DCs) pulsed with 20 μg/ml of peptides (during 1 hour) or with heat-inactivated bacteria (during 6 hours). Inactivation of bacteria consists in incubation at 65° C. during 2 hours. After 24 hours of culture, ELIspot of IFNγ is performed.\nFIG. 10. Cross-reactivity between the two E. hirae 708 and 13144 species for CTL splenic reactivity. Number of IFNγ spot representing IFNγ-secreting CD8+ T cells after co-culture with DCs pre-incubated with or without heat-inactivated bacteria (708, 13144, EH17 and L. plantarum).\nFIG. 13. Peptides from group 7 containing the TMP1 and TMP2 epitopes activate CD8+ T cells from spleen of mice immunized against E. hirae 13144. Number of IFNγ spot, representing IFNγ-secreting CD8+ T cells, after incubation with DCs pulsed with 13 different group of peptide (Table 6). Just group n° 1 (A) and group n° 7 (B) are shown. (C, E) Number of IFNγ spot, representing IFNγ-secreting CD8+ T cells, after incubation with DCs pulsed with 4 peptides belong to group n° 7 (in table 7). (D) Sequence alignment of TMP1 and TMP2 of EH10815 (SEQ ID Nos: 228 and 229 respectively) compared to EH13144 (fragments of SEQ ID NO: 1) at the level of immunogenic peptides. Amino acid sequence […] corresponds to SEQ ID No: 13. Amino acid sequence […] corresponds to SEQ ID No: 217. Amino acid sequence […] corresponds to SEQ ID Nos: 14. Amino acid sequence AlIEFIKGL corresponds to SEQ ID No: 218. (E) In vitro reactivity of splenic CTL in a recall response to TMP1 and TMP2 as well as Group7 after in vivo immunization with other strains of EH.\nas §1"}, "[7]": {"biological_target": "fluorescent H-2K^b/[…] (SEQ ID No: 13) tetrameric complex (mouse; Enterococcus hirae 13144 (39.2 kb prophage, TMP)) (UniProt P01901)", "assay": "flow cytometry with the fluorescent H-2K^b/… tetramer"}}, "data": [{"molecule": "CO[C@@]12[C@H](COC(N)=O)C3=C(C(=O)C(C)=C(N)C3=O)N1C[C@@H]1N[C@@H]12", "note": "[mitomycin C]", "values": [{"measurement": "prophage 1 and 2 excision from EH13144", "setting": "[1]", "result": "prophage 1 and 2 excision"}]}, {"molecule": "CD8+ T cells from PBMC of six HLA-A2+ healthy volunteers (cells without a defined receptor)", "values": [{"measurement": "IFNγ ELISPOT after in vitro stimulation", "setting": "[2]", "result": "50 % of HV"}, {"measurement": "IFNγ ELISPOT after in vitro stimulation", "setting": "[3]", "result": "50 % of HV"}]}, {"molecule": "Enterococcus hirae 13344 [EH17 (13344), reference compound]", "values": [{"measurement": "capacity to induce pTh17 cells in secondary lymphoid organs", "setting": "pTh17 cells", "result": "did not"}, {"measurement": "restoration of antibiotic-perturbed anticancer effects of CTX (MCA205 growth)", "setting": "MCA-205 sarcoma [4]", "result": "reduced anticancer effect"}, {"measurement": "immunogenic and oncomicrobiotic properties of the isolate", "setting": "[5]", "result": "no immunogenic nor oncomicrobiotic properties"}, {"measurement": "Anti-tumor effect", "setting": "MCA-205 sarcoma [6]", "result": "No"}, {"measurement": "memory Tc1 immune response (IFNγ spots) to BM-DC infected with EH isolates", "setting": "splenic CD8+ T cells; Example 2, FIG. 10, splenic CD8+ T cells after gavage + CTX, ELISPOT at 24 hrs", "result": "failed to do so"}, {"measurement": "TC1 response against TMP1 in mice gavaged with the strain (IFNγ ELISpot)", "setting": "splenic CD8+ T cells; Example 12, FIG. 27E", "result": "unable to do so"}]}, {"molecule": "splenic CD8+ T cells of mice gavaged with E. hirae 13144 and treated with CTX (cells without a defined receptor)", "values": [{"measurement": "percentage of splenic CD8+ T cells recognising the tetramer", "setting": "[7]", "result": "< 1", "unit": "%"}]}]}
